Consider 70 molecules from article PMC7539012, “Hyperphosphorylated tau aggregation and cytotoxicity modulators screen identified prescription drugs linked to Alzheimer's disease and cognitive functions” (Scientific Reports, 2020).

Counter-ions that a name gives are not always drawn.

For one assay, the system named is T1, 1N4R p-tau.
T1 construct: made in house; host or cells: E. coli (PIMAX system)
Nature of the assay: p-tau aggregation modulator screen of 1280-compound library (ThS fluorescence net change over 16 h).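 As to ThS net change: 30 µM compound with 6 µM p-tau over 16 h.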 The format is biochemical. Details: key to PTAI>2SD: *: PTAI>2SD.
Conditions: not given
On to `COc1ccc2c3c1O[C@H]1C[C@@H](O)C=C[C@@]31CCN(C)C2` [Galanthamine hydrobromide], for which the ThS net change turned out to be 448.
The molecule `CCC1(c2ccc(N)cc2)CCC(=O)NC1=O` (centres unmarked) [Glutethimide, para-amino] registered a ThS net change of 340.
The molecule `CCCCN(CCCC)CCC(O)c1cc2c(Cl)cc(Cl)cc2c2cc(C(F)(F)F)ccc12` (centres unmarked) [Halofantrine hydrochloride] yielded a ThS net change of 555.
`COc1ccc([C@@H]2CC(=O)c3c(O)cc(O[C@@H]4O[C@H](CO[C@@H]5O[C@@H](C)[C@H](O)[C@@H](O)[C@H]5O)[C@@H](O)[C@H](O)[C@H]4O)cc3O2)cc1O` [Hesperidin] came in with a ThS net change of 425.
`COc1ccc(CCN)cc1OC.Cl` [Homoveratrylamine] gave a ThS net change of 439.
On the same count and under the same terms, the same measure for `CN1[C@@H]2CC[C@H]1C[C@@H](OC(=O)[C@H](CO)c1ccccc1)C2` [Hyoscyamine (L)]: 434.
Same read-out and setting: the same measure for `O=C(NCNC(=O)NC1C(=O)NC(=O)N1CO)NC1C(=O)NC(=O)N1CO` (centres unmarked) [Imidurea]: 463; for `CN(C)CCCN1c2ccccc2CCc2ccccc21` [Imipramine hydrochloride]: 287; for `CC(C)(C)NC(=O)[C@@H]1CN(Cc2cccnc2)CCN1C[C@@H](O)C[C@@H](Cc1ccccc1)C(=O)N[C@H]1c2ccccc2C[C@H]1O` [Indinavir sulfate]: 457.

The assay is the same for the next values; noted with them: 1280-compound library screen; ThS fluorescence net change over 16 h.
In turn, `Nc1nc(O)c2ncn(COC(CO)CO)c2n1` [Ganciclovir] gave a ThS net change of 404.
As for `COc1cc2ncnc(Nc3ccc(F)c(Cl)c3)c2cc1OCCCN1CCOCC1` [Gefitinib], the ThS net change is given as 395.
On the same count and under the same terms, for `Cl.O=C(OCC(O)CO)c1ccccc1Nc1ccnc2cc(Cl)ccc12` (centres unmarked) [Glafenine hydrochloride] the value was 412; for `COc1ccc(Cl)cc1C(=O)NCCc1ccc(S(=O)(=O)NC(=O)NC2CCCCC2)cc1` [Glibenclamide], 391; for `Cc1ccc(S(=O)(=O)NC(=O)NN2CC3CCCC3C2)cc1` (centres unmarked) [Gliclazide], 379.
On the same count and under the same terms, the same measure for `C[N+]1(C)CCC(OC(=O)C(O)(c2ccccc2)C2CCCC2)C1` (centres unmarked) [Glycopyrrolate]: 401.
`CN1C2CCCC1CC(NC(=O)c1nn(C)c3ccccc13)C2` (centres unmarked) [Granisetron] displayed a ThS net change of 399.
Molecule `COc1ccccc1O` [Guaiacol] showed a ThS net change of 397.
On to `N=C(N)N/N=C/c1c(Cl)cccc1Cl` [Guanabenz acetate], for which the ThS net change is 405.
Consider `CC1(C)O[C@@H]2C[C@H]3[C@@H]4CCC5=CC(=O)CC[C@]5(C)[C@@]4(F)[C@@H](O)C[C@]3(C)[C@]2(C(=O)CCl)O1` [Halcinonide], for which the ThS net change was 384.
Regarding `CC(CNC1CCCCC1)OC(=O)c1ccccc1` (centres unmarked) [Hexylcaine hydrochloride], the ThS net change was 393.
On the same count and under the same terms, for `NS(=O)(=O)c1cc2c(cc1Cl)NCNS2(=O)=O` [Hydrochlorothiazide] the value was 384; for `C[C@]12CCC(=O)C=C1CC[C@@H]1[C@@H]2[C@@H](O)C[C@@]2(C)[C@H]1CC[C@]2(O)C(=O)CO` [Hydrocortisone base], 398.
On the same count and under the same terms, for `CCN(CCO)CCCC(C)Nc1ccnc2cc(Cl)ccc12` (centres unmarked) [Hydroxychloroquine sulfate] the value was 380.
The molecule `c1ccc2c(c1)OCC(C1=NCCN1)O2` (centres unmarked) [Idazoxan hydrochloride] had a ThS net change of 386.
Take `Cc1ccc(NC(=O)c2ccc(CN3CCN(C)CC3)cc2)cc1Nc1nccc(-c2cccnc2)n1` [Imatinib]: the ThS net change was 409.
`C[C@@H](O)[C@H]1C(=O)N2C(C(=O)O)=C(SCCN=CN)C[C@H]12` [Imipenem] yielded a ThS net change of 385.
For the molecule `COc1ccc2c(c1)c(CC(=O)O)c(C)n2C(=O)c1ccc(Cl)cc1` [Indomethacin], the ThS net change came to 386.
Still for that read-out and setting: the same measure for `N=C(N)NCc1cccc(I)c1.O=S(=O)(O)O` [Iobenguane sulfate]: 411.

Staying with this assay, now noted: 1280-compound library screen; […].
Molecule `C#C[C@]1(O)CC[C@H]2[C@@H]3CCC4=CC(=O)CCC4=C3C=C[C@@]21CC` [Gestrinone] showed a ThS net change of 397.
On the same count and under the same terms, the same measure for `C[N+]1(C)CCOC(O)(c2ccc(-c3ccc(C4(O)C[N+](C)(C)CCO4)cc3)cc2)C1.[Br-].[Br-]` (centres unmarked) [Hemicholinium bromide]: 379; for `CCCCCN(C)CCC(O)(P(=O)([O-])O)P(=O)(O)O.[Na+]` [Ibandronate sodium]: 394; for `CN[C@@H]1C[C@@H](c2ccc(Cl)c(Cl)c2)c2ccccc21` [Indatraline hydrochloride]: 388.

The same assay, now with this note: flag: p-tau aggregation inhibitor, ThS net change more than 2 SD from mean.
For `CCN(CC)CCNc1ccc(CO)c2sc3ccccc3c(=O)c12` [Hycanthone], the “PTAI>2SD” value is listed as “*”.

The same assay, now with this note: library screen, ThS fluorescence net change over 16 h with p-tau.
`CCOC(=O)c1ccc(OC(=O)CCCCCNC(=N)N)cc1.CS(=O)(=O)O` [Gabexate mesilate] displayed a ThS net change of 305.
With `O=C(CCCN1CCC(O)(c2ccc(Cl)cc2)CC1)c1ccc(F)cc1` [Haloperidol], the ThS net change is on record as 319.
On to `CC1CC(OC(=O)c2ccccc2O)CC(C)(C)C1` (centres unmarked) [Homosalate], for which the ThS net change is given as 279.
The molecule `CCN(CC)CCNc1ccc(CO)c2sc3ccccc3c(=O)c12` [Hycanthone] yielded a ThS net change of 171.
On the same count and under the same terms, the same measure for `OCCOCCN1CCN(C(c2ccccc2)c2ccc(Cl)cc2)CC1` (centres unmarked) [Hydroxyzine dihydrochloride]: 309.

The assay is the same for the next values; noted with them: p-tau aggregation modulator screen of 1280-compound library; ThS fluorescence net change.
The molecule `CC[N+](CC)(CC)CCOc1cccc(OCC[N+](CC)(CC)CC)c1OCC[N+](CC)(CC)CC` [Gallamine triethiodide] registered a ThS net change of 363.
For `Cc1ccc(C)c(OCCCC(C)(C)C(=O)O)c1` [Gemfibrozil], the ThS net change was found to be 353.
Same read-out and setting: the same measure for `Cc1cnc(C(=O)NCCc2ccc(S(=O)(=O)NC(=O)NC3CCCCC3)cc2)cn1` [Glipizide]: 371; for `COC1=CC(=O)C[C@@H](C)[C@]12Oc1c(Cl)c(OC)cc(OC)c1C2=O` [Griseofulvin]: 337; for `COc1ccccc1OCC(O)CO` (centres unmarked) [Guaifenesin]: 376.
The same measure, in the same setting: the same measure for `N=C(N)NCC1COC2(CCCCC2)O1.N=C(N)NCC1COC2(CCCCC2)O1.O=S(=O)(O)O` (centres unmarked) [Guanadrel sulfate]: 373; for `Clc1cc(Cl)c(OCC#CI)cc1Cl` [Haloprogin]: 374; for `CC(N)CCCC(C)(C)O` (centres unmarked) [Heptaminol hydrochloride]: 362.
`CCCCC(CC)CN1CN(CC(CC)CCCC)CC(C)(N)C1` (centres unmarked) [Hexetidine] came in with a ThS net change of 353.
As for `Cc1cc(=O)oc2cc(O)ccc12` [Hymecromone], the ThS net change is 357.
Still for that read-out and setting: for `CCCCCCCN(CC)CCCC(O)c1ccc(NS(C)(=O)=O)cc1.CCCCCCCN(CC)CCCC(O)c1ccc(NS(C)(=O)=O)cc1.O=C(O)/C=C/C(=O)O` (centres unmarked) [Ibutilide fumarate] the value was 330; for `O=c1[nH]c(=O)n([C@H]2C[C@H](O)[C@@H](CO)O2)cc1I` [Idoxuridine], 359; for `CC(C(O)c1ccc(O)cc1)N1CCC(Cc2ccccc2)CC1.O=C(O)C(O)C(O)C(=O)O` (centres unmarked) [Ifenprodil tartrate], 361.
The same measure, in the same setting: the same measure for `CC1Cc2ccccc2N1NC(=O)c1ccc(Cl)c(S(N)(=O)=O)c1` (centres unmarked) [Indapamide]: 347.
`CC(C(=O)O)c1ccc(N2Cc3ccccc3C2=O)cc1` (centres unmarked) [Indoprofen] registered a ThS net change of 364.
Turning to `CC(=O)N(CC(C)C(=O)O)c1c(I)cc(I)c(N)c1I` (centres unmarked) [Iocetamic acid], the ThS net change is 365.

Still in this assay, the particulars now being: p-tau aggregation modulator screen of 1280-compound library; […].
In the case of `NCC1(CC(=O)O)CCCCC1` [Gabapentin], the ThS net change is given as 363.
`C[N+](C)(C)CCCCCC[N+](C)(C)C.O.O.[Br-].[Br-]` [Hexamethonium dibromide dihydrate] gave a ThS net change of 342.
Molecule `Br.CN1[C@@H]2CC[C@H]1C[C@@H](OC(=O)C(O)c1ccccc1)C2` (stereo partly drawn) [Homatropine hydrobromide (R,S)] gave a ThS net change of 332.
On the same count and under the same terms, the same measure for `CN1CCCN(C(c2ccccc2)c2ccc(Cl)cc2)CC1.Cl.Cl` (centres unmarked) [Homochlorcyclizine dihydrochloride]: 343.
The molecule `O=P1(NCCCl)OCCCN1CCCl` (centres unmarked) [Ifosfamide] returned a ThS net change of 374.

Staying with this assay, now noted: p-tau aggregation modulator screen of the compound library, ThS fluorescence net change.
`CC(=O)O[C@H]1C[C@@]2(C)[C@@H](C[C@@H](O)[C@H]3[C@@]4(C)CC[C@@H](O)[C@@H](C)[C@@H]4CC[C@@]32C)/C1=C(\CCC=C(C)C)C(=O)O` [Fusidic acid sodium salt] gave a ThS net change of 438.
Same read-out and setting: for `Cl.Cl.Fc1ccc(C(OCCN2CCN(CCCc3ccccc3)CC2)c2ccc(F)cc2)cc1` [GBR 12909 dihydrochloride] the value was 515; for `COc1c(N2CCNC(C)C2)c(F)cc2c(=O)c(C(=O)O)cn(C3CC3)c12` (centres unmarked) [Gatifloxacin], 426.
`Nc1ccn([C@@H]2O[C@H](CO)[C@@H](O)C2(F)F)c(=O)n1` [Gemcitabine] returned a ThS net change of 470.
On the same count and under the same terms, for `CCC1=C(C)CN(C(=O)NCCc2ccc(S(=O)(=O)NC(=O)N[C@H]3CC[C@H](C)CC3)cc2)C1=O` [Glimepiride] the value was 415; for `COc1ccc2c(c1)C(=O)N(CCc1ccc(S(=O)(=O)NC(=O)NC3CCCCC3)cc1)C(=O)C2(C)C` [Gliquidone], 492.
Same read-out and setting: the same measure for `N=C(N)NC(=O)Cc1c(Cl)cccc1Cl` [Guanfacine hydrochloride]: 417; for `CC[C@H](c1ccc(O)cc1)[C@@H](CC)c1ccc(O)cc1` [Hexestrol]: 435; for `NCCc1c[nH]cn1` [Histamine dihydrochloride]: 438.
Molecule `NS(=O)(=O)c1cc2c(cc1C(F)(F)F)NCNS2(=O)=O` [Hydroflumethiazide] yielded a ThS net change of 425.
On the same count and under the same terms, the same measure for `CC(C)C(=O)c1c(C(C)C)nn2ccccc12` [Ibudilast]: 444; for `CC(C)Cn1cnc2c(N)nc3ccccc3c21` [Imiquimod]: 439.
